These results are taken from PMC4099174 (Journal of Medicinal Chemistry, 2014).

Series [1] concerns Bloodstream Trypanosoma brucei brucei Lister 427. In words: Trypanosome cell growth dose–response assay (resazurin viability test). It is filed as cell-based.
Series [2] deals with phosphorylated PIs (PIP, PIP3) in T. brucei cells. Put plainly: Phospholipidomics analysis (ES-MS of lipid extracts). Format: cell-based, Trypanosoma brucei. The settings on record: 200 nM, 12 h; negative ion mode scans 950–1300 m/z. An excerpt:
We originally selected 1 to investigate its potential as an trypanocidal agent on the basis of its activity as a PI3K/mTOR inhibitor in mammalian cells and the fact that PI3K activity is essential for the bloodstream form of the T. brucei parasite.[25] In the interest of elucidating the potential mechanism of action against T. brucei cells, we performed a lipidomic analysis to discern if PI kinases are likely targets of these analogues. Lipid extracts of cells grown in the presence of the best compounds at sublethal doses (200 nM) for 12 h were analyzed by ES-MS. […] There were no significant differences in the phosphatidylcholine (PC) and sphingomylein (SM) species between the control and cells grown in the presence of the other compounds (Figure S1). […] Alternatively, as is often the case, changes in the lipid profile could be a reflection in the cells succumbing to (or adapting to) a defect in a major cellular process, such as endo- or exocytosis or cell cycle arrest.
Because these compounds are thought to target PI3K, negative ion mode scans between 950 and 1300 m/z were conducted to focus upon singly and multiply phosphorylated PIs.
Total lipids from mid log phase cells were extracted by the method of Bligh and Dyer.[30] Briefly, mid log phase cells were collected by centrifugation (800g, 10 min), washed with PBS, resuspended in 100 μL of TDB-glucose, transferred to a glass tube containing 375 μL of 1:2 (v/v) CHCl3/MeOH, and vortexed. The sample was agitated vigorously for a further 10–15 min. The sample was made biphasic by the addition of 125 μL of CHCl3 and vortexed, and then 125 μL of H2O was added. The sample was vortexed again and centrifuged at 3000g at rt for 10 min. The lower (organic) phase was transferred into a new glass vial, and the aqueous phase was re-extracted with the fresh lower phase. The resultant lower phase lipid extract was dried under a stream of nitrogen and stored at 4 °C.
Lipid extracts were dissolved in 15 μL of CHCl3/MeOH (1:2) and 15 μL of acetonitrile/isopropanol/water (6:7:2) and analyzed with a triple quadrupole mass spectrometer (Absceix 4000 QTrap) equipped with a nanoelectrospray source. […] The lipid extracts were analyzed in both positive and negative ion modes using a capillary voltage of 1.25 kV. […] Tandem mass spectra (MS/MS) were obtained with collision energies as follows: 35–45 V, PC/SM in positive ion mode, parent-ion scanning of m/z 184; 35–55 V, PI in negative ion mode, parent-ion scanning of m/z 241; 35–65 V, PE in negative ion mode, parent-ion scanning of m/z 196; 20–35 V, PS in negative ion mode, neutral loss scanning of m/z 87; and 40–90 V, for all glycerophospholipids (including PA, PG, and cardiolipin) detected by precursor scanning for m/z 153 in negative ion mode. […]

The nature of a further series: ChromlogD assay. It is filed as physicochemical. The settings on record: pH 7.4. Here is the method:
page 13: PHYSICOCHEMICAL PROPERTIES ASSAYS […] phosphate buffered saline, equilibrated for 1 hour at room temperature, filtered through Millipore […] filter plates (MSSL BPC). The filtrate is quantified by suitably calibrated flow injection ChemicLuminescent Nitrogen Detection.1 The standard error of the CLND solubility […] DMSO stock solution. GSK inchouse Artificial Membrane Permeability Assay: […] in 1% cholesterol decane solution was applied to a […], 0.4um, PCF culture plate. 250 μL and 100 μL 50 mM phosphate buffer pH 7.4 with 0.5% […] applied to the […] in DMSO was added to the donor compartment. The assay was incubated at RT for 3 hours. Samples from both donor and receiver compartments were analyzed by HPLC with UV detection at 215 and 254 nm and permeability was calculated. The permeability (logPapp) measuring how fast molecules pass through the black lipid membrane is expressed in nm/s. ChromlogD assay. The Chromatographic Hydrophobicity Index (CHI)2 values were measured using reversed phase HPLC column (Luna C18 (2),Phenomenex, UK) with fast acetonitrile gradient at starting mobile phase of pH = 7.4. CHI values are derived directly from the gradient retention times by using a calibration line obtained for standard compounds. The CHI value approximates to the volume % organic concentration when the compound elutes. CHI is linearly transformed into ChromlogD by leastcsquare fitting of experimental CHI values to calculated ClogP values for over 20K research compounds using the following formula: ChromlogD = 0.0857CHIc2.00. The average error of the assay is ±3 CHI unit or ±0.25 ChromlogD. S13

For series [3], the system named is Bloodstream form culture of T. b. brucei. In words: Cell cycle analysis by FACS (propidium iodide). Format: cell-based, Trypanosoma brucei brucei. The settings on record: concentration twice the EC50, 18 h. Here is the method: For cell cycle analysis, samples (1.5 × 10^6 cells) were collected, centrifuged (1400g at 4 °C for 5 min), and washed in trypanosome dilution buffer (TDB). The cell pellets were gently suspended in 50 μL of TDB and permeabilized by adding 1 μL of saponin (25 mg/mL) for 3 min. It was then mixed with another 450 μL of TDB. RNase and propidium iodide (PI) were added to the suspension at final concentrations of 10 and 20 μg/mL, respectively, and the samples were incubated at room temperature for 30 min and then stored at 4 °C. The DNA content of PI-stained cells and the percentage of cells in each phase of the cell cycle (10 000 cells per sample) were analyzed with a Becton Dickinson FACSCalibur flow cytometer (BD Biosciences) using BD CellQuest Pro version 4.0.2 software.
Figure S3. Cell Cycle analysis of parasites upon dosage with NVP-BEZ235 derivative.
Bloodstream form culture of T. b. brucei was subjected to different drugs and analyzed by
Fluorescencecactivated cell sorter (FACS) for DNA content stained by propidium iodide (PI).
Cell cultures were incubated during 18 h with various NVPcBEZ235 derivatives using DMSO as
a control treatment. Mean ± SD of three independent experiments are shown.
On the technique in general: In flow cytometry, cells or beads pass a laser one at a time.

For series [4], the system named is bloodstream form of T. brucei. Put plainly: Transferrin uptake (receptor-mediated endocytosis). It is filed as cell-based, Trypanosoma brucei. As to conditions: concentration twice the EC50, 18 h. An excerpt: Highly efficient and rapid endocytosis is one of the most important cellular processes for this infective parasite to survive and multiply within the bloodstream of the host, and the activity of TbPI3KIII is essential for this process.[25] To gain insight on the possible target(s) of our compounds, we carried out transferrin uptake experiments to measure receptor-mediated endocytosis after drug treatment. […] Compound 16e induced a phenotype defective in endocytosis (Figure 3); however, the PIP3 molecular species identified (42:7-9) was not the same PIP3 molecular species identified in WT cells (44:9-12).
Two million trypanosomes were harvested and washed with TDB-glucose plus 1% BSA, resuspended in 250 μL in the same buffer, and incubated for 10 min at 37 °C prior to the addition of 5 μg of AlexaFluor 488-conjugated human holo-Tf (Invitrogen). Incubations were carried out for 0 (no Tf) or 3 min at 37 °C, after which cells were immediately fixed in 4 °C in 1% PFA diluted in cold PBS for at least 1 h. Parasites were finally washed twice with PBS and analyzed with a Becton Dickinson FACSCalibur flow cytometer (BD Biosciences) using BD CellQuest Pro version 4.0.2 software.

Setting [5] is: Table 2, average of two replicates, read-out: T brucei EC50.
Where [6] appears, read: Table 4, measured value (outside parentheses).

Where two headings read alike, the source gives them in different places.

In the case of “1-(4-((4-Methylpiperazin-1-yl)methyl)phenyl)-8-(pyridin-4-yl)-1H-imidazo[4,5-c]quinolin-2(3H)-one [Compound 16j]”, the “HepG2 TC50” value in the series on HepG2 cell line was greater than 7.6 µM. For the same molecule, in series [1] (setting [5]), the EC50 (commonly the concentration at which the effect is half-maximal) worked out at 3.35 µM.

“1-Methyl-8-(pyridin-4-yl)-1H-imidazo[4,5-c]quinolin-2(3H)-one [Compound 16k]”: the “HepG2 TC50” value in the series on HepG2 cell line is greater than 20 µM. Moreover, the concentration giving a half-maximal response (EC50) in series [1] (setting [5]) was determined as 3.27 µM.

Regarding `Cn1c(=O)n(-c2ccc(C(C)(C)C#N)cc2)c2c3cc(-c4cnc5ccccc5c4)ccc3ncc21` [Compound 1, NVP-BEZ235, reference compound], the “phosphorylated PI (PIP) levels vs control cells” value in series [2] is listed as “almost complete absence of all phosphorylated PIs”. Besides, in “ChromlogD assay”, the chromatographic logD (as a rule, lipophilicity estimated from chromatographic retention) worked out at 4.75. Also, the cell cycle progression result in series [3] is recorded as “did not significantly alter cell cycle progression”. In series [4], the “transferrin uptake / endocytosis” value is “inhibited endocytosis dramatically”.

Take `Cc1ccc(-n2c(=O)n(C)c3cnc4ccc(-c5ccncc5)cc4c32)cc1` [Compound 16e, 3-Methyl-8-(pyridin-4-yl)-1-(p-tolyl)-1H-imidazo[4,5-c]quinolin-2(3H)-one]: the “phosphorylated PI (PIP) levels vs control cells” value in series [2] is recorded as “significant (albeit incomplete) reduction in PIP levels”. The chromatographic logD in the series “ChromlogD assay” (setting [6]) was found to be 3.5. The cell cycle progression entry in series [3] is “did not significantly alter cell cycle progression”. For the same molecule, the “transferrin uptake / endocytosis” value in series [4] is recorded as “inhibited endocytosis dramatically”.

Consider `COc1ccc(-n2c(=O)n(C)c3cnc4ccc(-c5ccncc5)cc4c32)cc1` [Compound 16g, 1-(4-Methoxyphenyl)-3-methyl-8-(pyridin-4-yl)-1H-imidazo[4,5-c]quinolin-2(3H)-one], for which the “phosphorylated PI (PIP) levels vs control cells” value in series [2] is recorded as “almost complete absence of all phosphorylated PIs”. The chromatographic logD in “ChromlogD assay” (setting [6]) is 3.03. Besides, the cell cycle progression entry in series [3] is “did not significantly alter cell cycle progression”. The “transferrin uptake / endocytosis” value in series [4] is “inhibited endocytosis dramatically”.

In the case of `CC(C)(C#N)c1ccc(Nc2c(N)cnc3ccc(-c4cnc5ccccc5c4)cc23)cc1` [Compound 20, 2-(4-((3′-Amino-[3,6′-biquinolin]-4′-yl)amino)phenyl)-2-methylpropanenitrile], the EC50 in series [1] (Trypanosoma brucei, read-out: EC50 against T. brucei) was 0.767 µM.
